Test results: article PMC10035904, “Synthesis of novel sulphamethoxazole derivatives and exploration of their anticancer and antimicrobial properties” (PLOS ONE, 2023)
≈ marks a conversion by molar mass, not a printed value.

Columns and labels:
[1] = system: Proteus mirabilis ATCC 12459; assay: Serial broth dilution in liquid medium, P. mirabilis; assay type: cell-based; settings: ATCC12459, Mueller-Hinton broth, 24 hours, n = 3
Method: (§1) Antibacterial and antifungal susceptibility to the compound 16b was tested using a serial broth dilution technique in Mueller-Hinton broth II (BBL, Cockeysville, USA), as described elsewhere. All procedures were done in aseptic conditions. Standard bacterial and fungal cultures were used: Staphylococcus aureus ATCC 25923, Staphylococcus epidermidis ATCC 12228, Escherichia coli ATCC 25922, Enterococcus faecalis ATCC 29212, Klebsiella pneumoniae ATCC 33499, Pseudomonas aeruginosa ATCC 27853, Proteus mirabilis ATCC 12459, Bacillus cereus ATCC 8035, and Candida albicans ATCC 60193. Standard cultures of nonsporic bacteria S. aureus, S. epidermidis, E. coli, E. faecalis, K. pneumoniae, P. aeruginosa and P. mirabilis were cultivated for 20–24 hours at 37°C in Mueller-Hinton Agar (BBL, Cockeysville, USA). A bacterial suspension was prepared from cultivated bacterial cultures in physiological solution according to turbidity standard 0.5 McFarland. Standard culture of sporic bacteria B. cereus was cultivated for 7 days at 37°C in Mueller-Hinton II Agar. […] Then the absorbance was measured at 600 nm using a multi-detection microplate reader. […]

[2] = system: Klebsiella pneumoniae ATCC 33499; assay: Serial dilution on solid agar, K. pneumoniae; assay type: cell-based; settings: ATCC33499, solid Mueller-Hinton agar, 24 hours
Method: (§2) Antimicrobial activity of compound 16b on solid agar was tested using the same microbial cultures, and the same suspension preparation procedure, as described in above section. All procedures were done in aseptic conditions.
(§3) Mueller-Hinton agar was boiled and kept at to 37 °C during the whole procedure. Compound 16b solution was prepared in DMSO right before experiment. The Agar was mixed with compound solution at different ratios to make the final compound concentrations of 1 mM, 400 μM, 200 μM and 100 μM. Then 10 ml of prepared solution was poured into sterile Petri dishes (85 mm in diameter) and kept in aseptic conditions while the agar solidified. The agar with 0.5% of DMSO served as a negative control. With the help of loop standard microbial cultures by 0.1 ml were poured on the surface of prepared agar with investigative compound. Then Petri dishes were kept for 24 hours in thermostatic conditions.
(§4) The minimal dilution, i.e. the lowest concentration in μg/mL of the investigative and comparison compounds that inhibited visible growth of microorganisms was the minimal inhibitory concentration (MIC).

[3] = system: Pseudomonas aeruginosa ATCC 27853; assay: Serial dilution on solid agar, P. aeruginosa; assay type: cell-based; settings: ATCC27853, solid Mueller-Hinton agar, 24 hours
Method: as §2, §3, §4

[4] = system: Enterococcus faecalis ATCC 29212; assay: Serial dilution on solid agar, E. faecalis; assay type: cell-based; settings: ATCC29212, solid Mueller-Hinton agar, 24 hours
Method: as §2, §3, §4

[5] = system: Candida albicans ATCC 60193; assay: Serial dilution on solid agar, C. albicans; assay type: cell-based; settings: ATCC60193, solid Mueller-Hinton agar, 24 hours
Method: as §2, §3, §4

[6] = system: Staphylococcus aureus ATCC 25923; assay: Serial broth dilution in liquid medium, S. aureus; assay type: cell-based; settings: Mueller-Hinton broth, 24 hours; result in words
Method: as §1

[7] = system: Staphylococcus epidermidis ATCC 12228; assay: Serial broth dilution in liquid medium, S. epidermidis; assay type: cell-based; settings: Mueller-Hinton broth, 24 hours; result in words
Method: as §1

[8] = system: Staphylococcus aureus ATCC 25923; assay: Serial dilution on solid agar, S. aureus; assay type: cell-based; settings: ATCC25923, solid Mueller-Hinton agar, 24 hours
Method: as §2, §3, §4

[9] = system: Escherichia coli ATCC 25922; assay: Serial broth dilution in liquid medium, E. coli; assay type: cell-based; settings: ATCC25922, Mueller-Hinton broth, 24 hours, n = 3
Method: as §1

[10] = system: Human foreskin fibroblasts (HF) CRL-4001; assay: MTT cell viability assay, fibroblasts HF; assay type: cell-based; settings: Fibroblast, 72 hours of incubation, n = 3, read-out: EC50 against HF
Method: The human clear cell renal cell carcinoma line (CaKi-1) was obtained from American Type Culture Collection (ATCC, Manassas, VA). The human prostate carcinoma cell line PPC-1 was originally obtained from ATCC and kindly provided by Prof. Tambet Teesalu (University of Tartu, Estonia). Human foreskin fibroblasts (HF) CRL-4001 were originally obtained from ATCC and kindly provided by Prof. Helder Santos (University of Helsinki, Finland). Cells were cultured in Dulbecco’s Modified Eagle’s GlutaMAX medium (Gibco (Carlsbad, CA, USA) supplemented with 10,000 U/mL penicillin, 10 mg/mL streptomycin (Gibco), and 10% fetal bovine serum (Gibco). During cell passaging, Tryple Express reagent (Gibco) was used for cell detachment. Cell cultures were grown at 37°C in a humidified atmosphere containing 5% CO2. They were used until the passage of 20.
The effect of synthesized compounds on cell viability was studied using 3-(4,5-dimethylthiazol-2-yl)-2,5-diphenyltetrazolium bromide (MTT; Sigma-Aldrich Co., St Louis, MO, USA) assay, as described elsewhere. […] The absorbance was measured at 570 and 630 nm using a multi-detection microplate reader. The compound effect on cell viability was calculated using a formula (1): Relativecellviability%=A−A0/ANC−A0 (1) Where: […]

## Cc1cc(NS(=O)(=O)c2ccc(NCCC(=O)NN=Cc3ccc([N+](=O)[O-])o3)cc2)no1 [Compound 16b, N-(5-methylisoxazol-3-yl)-4-((3-(2-((5-nitrofuran-2-yl)methylene)hydrazineyl)-3-oxopropyl)amino)-benzenesulfonamide]
other
  melting point: 221 to 222 °C
[1]
  EC50: > 100 µM
[2]
  MIC: 1000 µM (≈ 462 µg/mL)
[3]
  MIC: > 1000 µM
[4]
  MIC: 1000 µM (≈ 462 µg/mL)
[5]
  MIC: 400 µM (≈ 185 µg/mL)
[6]
  sensitivity of S. aureus in liquid medium: most sensitive
[7]
  sensitivity of S. epidermidis in liquid medium: most sensitive
[8]
  MIC: 100 µM (≈ 46.2 µg/mL)
[9]
  EC50: > 100 µM
[10]
  EC50: 9.5 ± 2.7 µM
